Structures are written as SMILES.

Twelve compounds from patent publication US11472799B2, “Serine threonine kinase (AKT) degradation / disruption compounds and methods of use” (Icahn School of Medicine at Mount Sinai, priority 2018, dated 2022) can be followed below.

The subject of one test is AKT. Kind of test: Western blot of AKT protein levels in PC-3 cells. The class given is cell-based, human. The settings on record: 1 μM (FIGS. 11 and 12). The method, then: PC-3, U87MG, HCC1143, MDA-MB-231, MDA-MB-468, BT474 and MCF-7 cell lines were purchased from ATCC. Cell lines were regularly tested in the lab for mycoplasma. All cells were cultured at 37° C. and 5% CO2. PC-3, U87MG, MDA-MB-231, MCF-7 and BT474 cells were cultured in 1×DMEM (Corning, 10-013-CV) with 10% fetal bovine serum (Atlanta Biologicals S11150) and 1× Penicillin/Streptomycin. HCC1143 cells were cultured in RPMI (Corning, 10-040-CV) medium with 10% fetal bovine serum (Atlanta Biologicals S11150) and 1× Penicillin/Streptomycin. Cells were split using 0.05% or 0.25% trypsin (Corning 25-051-Cl or 25-053-Cl, respectively) before they reached full confluence and media was changed every 3-4 days. Cells were treated with compounds individually at different concentrations for 24 hrs. Cells were treated with DMSO, VHL, or PML alone as controls.
(§1) Cells were lysed in 2× sample buffer (125 mM Tris-HCl at pH 6.8, 10% βME, 2% SDS, 20% glycerol, 0.05% Bromophenol Blue, 8 M urea). Protein lysates were loaded into 4-12% Bis-Tris gels and resolved by electrophoresis. Samples were then blotted on PVDF membrane (Millipore IPVH00010) using the wet transfer technique (Invitrogen). Membranes were blocked in 5% milk-TBST for 1 hour, washed in TBST for 10 min, and incubated in primary antibody in 5% milk-TBST or 5% BSA-TBST at 4° C. for 16 h. Membranes were rinsed (3×6 min) in TBST and incubated in horseradish peroxidase-conjugated secondary antibodies in 5% milk-TBST for 1 hour and rinsed again in TBST (3×6 min). Membranes were visualized using the chemiluminescence system (Thermo 34080, 37075) on autoradiography film (Denville E3018). Primary Antibodies: R-actin (Sigma A5316), p-AKT (Ser473 CST-9721), total AKT (CST-9272), p-S6 (Ser240/244, CST-5364), p-PRAS40 (Thr246, CST-2997). Secondary Antibodies: Mouse (Thermo 31432), Rabbit (Thermo 31460).
For orientation: Immunoblotting shows a protein as a band on a membrane.
In the case of `Cc1ncsc1-c1ccc(CNC(=O)[C@@H]2C[C@@H](O)CN2C(=O)[C@@H](NC(=O)CCCCCCCCNC(=O)CCc2cccc(-c3ccc4nc(-c5cccnc5N)n(-c5ccc(C6(N)CCC6)cc5)c4n3)c2)C(C)(C)C)cc1` [XF067-16, (2S,4R)-1-((S)-2-(9-(3-(3-(3-(4-(1-aminocyclobutyl)phenyl)-2-(2-aminopyridin-3-yl)-3H-imidazo[4,5-b]pyridin-5-yl)phenyl)propanamido)nonanamido)-3,3-dimethylbutanoyl)-4-hydroxy-N-(4-(4-methylthiazol-5-yl)benzyl)pyrrolidine-2-carboxamide], the “suppression of AKT protein level and AKT activity” value (from here on “suppression”) is “effective in suppressing AKT protein level and AKT activity”.
Consider `CCn1c(-c2nonc2N)nc2c(C#CC(C)(C)O)ncc(OCCCNCCCC(=O)NCCCCCCCCCC(=O)N[C@H](C(=O)N3C[C@H](O)C[C@H]3C(=O)NCc3ccc(-c4scnc4C)cc3)C(C)(C)C)c21` [XF067-100, (2S,4R)-1-((S)-2-(10-(4-((3-((2-(4-amino-1,2,5-oxadiazol-3-yl)-1-ethyl-4-(3-hydroxy-3-methylbut-1-yn-1-yl)-1H-imidazo[4,5-c]pyridin-7-yl)oxy)propyl)amino)butanamido)decanamido)-3,3-dimethylbutanoyl)-4-hydroxy-N-(4-(4-methylthiazol-5-yl)benzyl)pyrrolidine-2-carboxamide], for which the “suppression” value is “effective in suppressing AKT protein level and AKT activity”.
Turning to `CCn1c(-c2nonc2N)nc2c(C#CC(C)(C)O)ncc(OCCCNCCCC(=O)NCCCCCCCCC(=O)N[C@H](C(=O)N3C[C@H](O)C[C@H]3C(=O)NCc3ccc(-c4scnc4C)cc3)C(C)(C)C)c21` [XF067-99, (2S,4R)-1-((S)-2-(9-(4-((3-((2-(4-amino-1,2,5-oxadiazol-3-yl)-1-ethyl-4-(3-hydroxy-3-methylbut-1-yn-1-yl)-1H-imidazo[4,5-c]pyridin-7-yl)oxy)propyl)amino)butanamido)nonanamido)-3,3-dimethylbutanoyl)-4-hydroxy-N-(4-(4-methylthiazol-5-yl)benzyl)pyrrolidine-2-carboxamide], the “suppression” value is “effective in suppressing AKT protein level and AKT activity”.
Still for that read-out and setting: as for `CCn1c(-c2nonc2N)nc2c(C#CC(C)(C)O)ncc(OCCCNCCCC(=O)NCCCCCCCNc3cccc4c3C(=O)N(C3CCC(=O)NC3=O)C4=O)c21` (stereo not shown) [XF067-112, 4-((3-((2-(4-amino-1,2,5-oxadiazol-3-yl)-1-ethyl-4-(3-hydroxy-3-methylbut-1-yn-1-yl)-1H-imidazo[4,5-c]pyridin-7-yl)oxy)propyl)amino)-N-(7-((2-(2,6-dioxopiperidin-3-yl)-1,3-dioxoisoindolin-4-yl)amino)heptyl)butanamide], the entry is “effective in suppressing AKT protein level and AKT activity”; as for `Cc1ncsc1-c1ccc(CNC(=O)[C@@H]2C[C@@H](O)CN2C(=O)[C@@H](NC(=O)CCCCCCCCCC(=O)NCCc2cccc(-c3ccc4nc(-c5cccnc5N)n(-c5ccc(C6(N)CCC6)cc5)c4n3)c2)C(C)(C)C)cc1` [XF067-47, N^1-(3-(3-(4-(1-aminocyclobutyl)phenyl)-2-(2-aminopyridin-3-yl)-3H-imidazo[4,5-b]pyridin-5-yl)phenethyl)-N^11-((S)-1-((2S,4R)-4-hydroxy-2-((4-(4-methylthiazol-5-yl)benzyl)carbamoyl)pyrrolidin-1-yl)-3,3-dimethyl-1-oxobutan-2-yl)undecanediamide], “effective in suppressing AKT protein level and AKT activity”.
The same measure, in the same setting: as for `CCn1c(-c2nonc2N)nc2c(C#CC(C)(C)O)ncc(OCCCNCCCC(=O)NCCCCCCCCNc3cccc4c3C(=O)N(C3CCC(=O)NC3=O)C4=O)c21` (stereo not shown) [XF067-113, 4-((3-((2-(4-amino-1,2,5-oxadiazol-3-yl)-1-ethyl-4-(3-hydroxy-3-methylbut-1-yn-1-yl)-1H-imidazo[4,5-c]pyridin-7-yl)oxy)propyl)amino)-N-(8-((2-(2,6-dioxopiperidin-3-yl)-1,3-dioxoisoindolin-4-yl)amino)octyl)butanamide], the entry is “effective in suppressing AKT protein level and AKT activity”; as for `Cc1ncsc1-c1ccc(CNC(=O)[C@@H]2C[C@@H](O)CN2C(=O)[C@@H](NC(=O)CCCCCCC(=O)NCCc2cccc(-c3ccc4nc(-c5cccnc5N)n(-c5ccc(C6(N)CCC6)cc5)c4n3)c2)C(C)(C)C)cc1` [XF067-44, N^1-(3-(3-(4-(1-aminocycIobutyl)phenyl)-2-(2-aminopyridin-3-yl)-3H-imidazo[4,5-b]pyridin-5-yl)phenethyl)-N^8-((S)-1-((2S,4R)-4-hydroxy-2-((4-(4-methylthiazol-5-yl)benzyl)carbamoyl)pyrrolidin-1-yl)-3,3-dimethyl-1-oxobutan-2-yl)octanediamide], “effective in suppressing AKT protein level and AKT activity”.
Consider `Cc1ncsc1-c1ccc(CNC(=O)[C@@H]2C[C@@H](O)CN2C(=O)[C@@H](NC(=O)CCCCCCCCC(=O)NCCc2cccc(-c3ccc4nc(-c5cccnc5N)n(-c5ccc(C6(N)CCC6)cc5)c4n3)c2)C(C)(C)C)cc1` [XF067-46, N^1-(3-(3-(4-(1-aminocyclobutyl)phenyl)-2-(2-aminopyridin-3-yl)-3H-imidazo[4,5-b]pyridin-5-yl)phenethyl)-N^10-((S)-1-((2S,4R)-4-hydroxy-2-((4-(4-methylthiazol-5-yl)benzyl)carbamoyl)pyrrolidin-1-yl)-3,3-dimethyl-1-oxobutan-2-yl)decanediamide], for which the “suppression” value is “effective in suppressing AKT protein level and AKT activity”.
Turning to `CCn1c(-c2nonc2N)nc2c(C#CC(C)(C)O)ncc(OCCCNCCCC(=O)NCCCCCCCC(=O)N[C@H](C(=O)N3C[C@H](O)C[C@H]3C(=O)NCc3ccc(-c4scnc4C)cc3)C(C)(C)C)c21` [XF067-98, (2S,4R)-1-((S)-2-(8-(4-((3-((2-(4-amino-1,2,5-oxadiazol-3-yl)-1-ethyl-4-(3-hydroxy-3-methylbut-1-yn-1-yl)-1H-imidazo[4,5-c]pyridin-7-yl)oxy)propyl)amino)butanamido)octanamido)-3,3-dimethylbutanoyl)-4-hydroxy-N-(4-(4-methylthiazol-5-yl)benzyl)pyrrolidine-2-carboxamide], the “suppression” value is “effective in suppressing AKT protein level and AKT activity”.
With `Cc1ncsc1-c1ccc(CNC(=O)[C@@H]2C[C@@H](O)CN2C(=O)[C@@H](NC(=O)CCCCCCCC(=O)NCCc2cccc(-c3ccc4nc(-c5cccnc5N)n(-c5ccc(C6(N)CCC6)cc5)c4n3)c2)C(C)(C)C)cc1` [XF067-45, N^1-(3-(3-(4-(1-aminocyclobutyl)phenyl)-2-(2-aminopyridin-3-yl)-3H-imidazo[4,5-b]pyridin-5-yl)phenethyl)-N^9-((S)-1-((2S,4R)-4-hydroxy-2-((4-(4-methylthiazol-5-yl)benzyl)carbamoyl)pyrrolidin-1-yl)-3,3-dimethyl-1-oxobutan-2-yl)nonanediamide], the “suppression” value was “effective in suppressing AKT protein level and AKT activity”.

The same test, now with this note: 1 μM for 24 h (FIGS. 11, 12).
For `Nc1ncccc1-c1nc2ccc(-c3ccccc3)nc2n1-c1ccc(C2(N)CCC2)cc1` [ARQ-092, 3-(3-(4-(1-Aminocyclobutyl)phenyl)-5-phenyl-3H-imidazo[4,5-b]pyridin-2-yl)pyridin-2-amine, reference compound], the AKT protein levels entry is recorded as “no effect”.

The subject of another test is AKT. Kind of test: Time course Western blot of AKT degradation in BT474 cells. The class given is cell-based, human. The settings on record: BT474 cells (FIGS. 2 and 5). The method, then: as §1
Take `Cc1ncsc1-c1ccc([C@H](C)NC(=O)[C@@H]2C[C@@H](O)CN2C(=O)[C@@H](NC(=O)CCCCCCCCCCNC(=O)CCNC[C@@H](C(=O)N2CCN(c3ncnc4c3[C@H](C)C[C@H]4O)CC2)c2ccc(Cl)cc2)C(C)(C)C)cc1` [XF042-162, (2S,4R)-1-((S)-2-(11-(3-(((S)-2-(4-chlorophenyl)-3-(4-((5R,7R)-7-hydroxy-5-methyl-6,7-dihydro-5H-cyclopenta[d]pyrimidin-4-yl)piperazin-1-yl)-3-oxopropyl)amino)propanamido)undecanamido)-3,3-dimethylbutanoyl)-4-hydroxy-N-((S)-1-(4-(4-methylthiazol-5-yl)phenyl)ethyl)pyrrolidine-2-carboxamide]: the “time point for the most significant AKT degradation” value is given as 24 h.

Staying with this test, now noted: BT474 cells, 1 μM.
For the compound `Cc1ncsc1-c1ccc([C@H](C)NC(=O)[C@@H]2C[C@@H](O)CN2C(=O)[C@@H](NC(=O)CCCCCCCCCCNC(=O)CCNC[C@@H](C(=O)N2CCN(c3ncnc4c3[C@H](C)C[C@H]4O)CC2)c2ccc(Cl)cc2)C(C)(C)C)cc1` [XF042-162, (2S,4R)-1-((S)-2-(11-(3-(((S)-2-(4-chlorophenyl)-3-(4-((5R,7R)-7-hydroxy-5-methyl-6,7-dihydro-5H-cyclopenta[d]pyrimidin-4-yl)piperazin-1-yl)-3-oxopropyl)amino)propanamido)undecanamido)-3,3-dimethylbutanoyl)-4-hydroxy-N-((S)-1-(4-(4-methylthiazol-5-yl)phenyl)ethyl)pyrrolidine-2-carboxamide], the “time-dependent reduction of AKT, p-AKT, P-PRAS40 (T246), and P-S6 (S240/244) protein levels” value was “time-dependently reduce”.
